From patent publication US20160145257A1, “SUBSTITUTED XANTHINES AND METHODS OF USE THEREOF” (Hydra Biosciences, Inc., priority 2013, published 2016)
Structures can show the parent of a compound that is named as a salt.

Each compound was assayed against T1, hTRPC5 (Homo sapiens, UniProt Q9UL62) (assay: Whole-cell patch clamp, block of LaCl3-activated TRPC5 inward current). Details: TRPC5-expressing HEK293 TREx cells, 80 μM LaCl3, inward current, IC50 estimated from 5 μM and 500 nM, read-out: hTRPC5 Patch La3+ Inwd (nM) (All Batches).
T1 construct: expressed in transfected cells; host or cells: HEK293 TREx cells with inducible TRPC5 expression
T1 sequence (Q9UL62 1-973): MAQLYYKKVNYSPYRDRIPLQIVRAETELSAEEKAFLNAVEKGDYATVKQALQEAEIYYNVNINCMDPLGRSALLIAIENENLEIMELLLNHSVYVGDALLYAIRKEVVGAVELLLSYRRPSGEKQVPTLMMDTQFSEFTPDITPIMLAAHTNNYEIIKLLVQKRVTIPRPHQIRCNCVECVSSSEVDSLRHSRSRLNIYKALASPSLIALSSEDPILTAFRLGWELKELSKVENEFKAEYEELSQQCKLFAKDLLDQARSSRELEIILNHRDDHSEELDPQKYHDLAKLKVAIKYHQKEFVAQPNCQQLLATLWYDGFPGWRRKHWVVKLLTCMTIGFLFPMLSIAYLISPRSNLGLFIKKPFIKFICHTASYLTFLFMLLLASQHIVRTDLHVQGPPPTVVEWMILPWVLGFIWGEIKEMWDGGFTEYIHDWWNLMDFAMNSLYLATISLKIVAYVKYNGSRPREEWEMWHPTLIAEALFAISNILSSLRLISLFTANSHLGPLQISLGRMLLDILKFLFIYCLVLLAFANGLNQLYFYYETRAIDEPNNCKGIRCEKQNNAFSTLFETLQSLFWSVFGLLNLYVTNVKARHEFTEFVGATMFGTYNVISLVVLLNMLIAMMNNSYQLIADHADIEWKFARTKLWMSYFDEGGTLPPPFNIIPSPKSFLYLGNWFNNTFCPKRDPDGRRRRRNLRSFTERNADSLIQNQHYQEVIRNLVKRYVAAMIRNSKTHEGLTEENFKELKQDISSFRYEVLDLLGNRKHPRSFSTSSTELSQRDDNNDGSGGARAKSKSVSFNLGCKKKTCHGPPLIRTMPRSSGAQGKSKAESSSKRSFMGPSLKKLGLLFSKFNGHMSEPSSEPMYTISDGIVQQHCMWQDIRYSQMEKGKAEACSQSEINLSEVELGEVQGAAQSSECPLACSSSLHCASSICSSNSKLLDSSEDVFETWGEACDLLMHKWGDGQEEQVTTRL
Assay type: cell-based
Procedure: In certain embodiments, exemplary compounds of Formula I and Formula II include the compounds described in Table 1 and in the Examples. A compound described herein may be tested for its ability to block both inward and outward currents through the TRPC5 channel, e.g., by an assay as described in Example 1. For example, IC50 of a compound of Formula I or Formula II was estimated by testing the compound at 5 μM and 500 nM. […] IC50 for a compound of Formula I or Formula II between 500 nM and 5 μM was similarly estimated. As shown, “A” refers to an IC50<100 nM. “B” refers to an IC50 between 100 nM and 500 nM. “C” refers to an IC50 between 500 nM and 1000 nM. “D” refers to an IC50 between 1 μM and 2 μM. “E” refers to an IC50 between 2 μM and 10 μM. “F” refers to […]. “ND” refers to compounds wherein the IC50 was not determined.
Patch clamp experiments permit the detection of currents through the TRPC5 channel in the cell line described above. In normal whole-cell patch clamp recordings, a glass electrode is brought into contact with a single cell and a high-resistance (gigaohm) seal is established with the cell membrane. The membrane is then ruptured to achieve the whole-cell configuration, permitting control of the voltage of the cell membrane and measurement of currents flowing across the membrane using the amplifier attached to the electrode and resulting in the replacement of cytoplasm with the pipette solution. A perfusion system permits control of the extracellular solution, including the addition of blockers and activators of the current. The current can be activated by including 1.4 μM free Ca^2+ in the pipette (intracellular) solution, and 80 μM LaCl3 in the extracellular solution.
TRPC5 cells were induced 20-48 hours, removed from growth plates, and replated at low density (to attain good single-cell physical separation) on glass coverslips for measurement. In some cases, cells were grown in low density overnight on glass coverslips. Patch clamp recordings were made in the whole-cell mode with a holding potential of −40 mV. Every 5 seconds, a voltage ramp was applied from −120 to +100 mV, 400 ms in duration. Currents elicited were quantified at −80 mV and +80 mV. The internal solution consisted of 140 mM cesium aspartate, 10 mM HEDTA, 2 mM CaCl2, 2.27 mM MgCl2 and 10 mM HEPES, pH 7.2, with 1,400 nM calculated free Ca^2+. The external solution consisted of 150 mM NaCl, 4.5 mM KCl, 1 mM MgCl2, 2 mM CaCl2, 10 mM HEPES, 10 mM glucose, 1 mM EGTA, pH 7.4. Upon addition of LaCl3, TRPC5 current was induced only in TRPC5-expressing cells and not in parental HEK293 TREx cells. Removal of the LaCl3 stimulus causes most of the current to go away. Potential blockers were tested for ability to block both inward and outward currents in the continued presence of LaCl3.
IC50 of a compound of Formula I or Formula II was estimated by testing the compound at 5 μM and 500 nM. […] IC50 for a compound of Formula I or Formula II between 500 nM and 5 μM was similarly estimated.

SMILES	IC50 [nM]
Cn1c(=O)c2c(nc(Oc3cccc(C(F)(F)F)c3)n2-c2ccc(Cl)cc2)n(C)c1=O [Compound 196]	2000 to 10000
Cn1c(=O)c2c(nc(OCc3cccc(C(F)(F)F)c3)n2Cc2ccc(Cl)cc2)n(C)c1=O [Compound 145, 7-(4-chlorobenzyl)-1,3-dimethyl-8-(3-(trifluoromethyl)benzyloxy)-1H-purine-2,6(3H,7H)-dione]	< 100
Cn1c(=O)c2c(nc(Oc3cccc(OC(F)(F)F)c3)n2Cc2cccc(Cl)c2)n(C)c1=O [Compound 168, 7-(3-chlorobenzyl)-1,3-dimethyl-8-(3-(trifluoromethoxy)phenoxy)-1H-purine-2,6(3H,7H)-dione]	100 to 500
CN1CCN(C(=O)Cc2nc3c(c(=O)n(C)c(=O)n3C)n2Cc2cccc(Br)c2)CC1 [Compound 29]	2000 to 10000
Cc1ccc(Oc2nc3c(c(=O)n(C)c(=O)n3C)n2Cc2ccc(Cl)cc2)cc1C(F)(F)F [Compound 199]	2000 to 10000
Cn1c(=O)c2c(nc(Oc3cccc(C(F)(F)F)c3)n2Cc2cccc3ccccc23)n(C)c1=O [Compound 179, 1,3-dimethyl-7-(naphthalen-1-ylmethyl)-8-(3-(trifluoromethyl)phenoxy)-1H-purine-2,6(3H,7H)-dione]	100 to 500
Cc1ccc(Cn2c(Oc3cccc(OC(F)(F)F)c3)nc3c2c(=O)n(C)c(=O)n3C)cc1 [Compound 178, 1,3-dimethyl-7-(4-methylbenzyl)-8-(3-(trifluoromethoxy)phenoxy)-1H-purine-2,6(3H,7H)-dione]	100 to 500
Cn1c(=O)c2c(nc(CCCO)n2Cc2cccc(Br)c2)n(C)c1=O [Compound 43]	2000 to 10000
CCCOCCc1nc2c(c(=O)n(C)c(=O)n2C)n1Cc1cccc(F)c1 [Compound 92]	2000 to 10000
CN(C)Cc1ccc(Cn2c(Oc3cccc(OC(F)(F)F)c3)nc3c2c(=O)n(C)c(=O)n3C)cc1 [Compound 186]	2000 to 10000
CCCOCCc1nc2c(c(=O)n(C)c(=O)n2C)n1Cc1cccc(C(N)=O)c1 [Compound 121]	2000 to 10000
CCCOCCc1nc2c(c(=O)n(C)c(=O)n2C)n1Cc1cccc(CO)c1 [Compound 141]	2000 to 10000
CCc1coc(CSc2nc3c(c(=O)n(C)c(=O)n3C)n2Cc2cccc(OC(F)(F)F)c2)n1 [Compound 106, 8-((4-ethyloxazol-2-yl)methylthio)-1,3-dimethyl-7-(3-(trifluoromethoxy)benzyl)-1H-purine-2,6(3H,7H)-dione]	100 to 500
CCCOCCc1nc2c(c(=O)n(C)c(=O)n2C)n1Cc1cccc(OC(F)(F)F)c1 [Compound 88]	500 to 1000
CCOC(=O)C(C)(C)CCc1nc2c(c(=O)n(C)c(=O)n2C)n1Cc1cccc(Br)c1 [Compound 83]	2000 to 10000
CCOCCOc1nc2c(c(=O)n(C)c(=O)n2C)n1Cc1cccc(Br)c1 [Compound 18, 7-(3-bromobenzyl)-8-(2-ethoxyethoxy)-1,3-dimethyl-1H-purine-2,6(3H,7H)-dione]	1000 to 2000
CNCc1cccc(Oc2nc3c(c(=O)n(C)c(=O)n3C)n2Cc2ccc(Cl)cc2)c1 [Compound 163, 7-(4-Chlorobenzyl)-1,3-dimethyl-8-(3-((methylaminol)methyl)phenoxy)-1H-purine-2,6(3H,7H)-dione hydrochloride]	2000 to 10000
Cn1c(=O)c2c(nc(SCc3ccccn3)n2Cc2cccc(Br)c2)n(C)c1=O [Compound 12, 7-(3-bromobenzyl)-1,3-dimethyl-8-(pyridin-2-ylmethylthio)-1H-purine-2,6(3H,7H)-dione]	500 to 1000
CCOC(=O)c1cccc(Cc2nc3c(c(=O)n(C)c(=O)n3C)n2Cc2cccc(Br)c2)c1 [Compound 102, ethyl 3-((7-(3-bromobenzyl)-1,3-dimethyl-2,6-dioxo-2,3,6,7-tetrahydro-1H-purin-8-yl)methyl)benzoate]	1000 to 2000
CCCOCCc1nc2c(c(=O)n(C)c(=O)n2C)n1Cc1ccc(OC)cc1 [Compound 89]	2000 to 10000
Cn1c(=O)c2c(nc(SCCCC#N)n2Cc2cccc(Cl)c2)n(C)c1=O [Compound 62]	1000 to 2000
Cn1c(=O)c2c(nc(Oc3cccc(C(F)(F)F)c3)n2Cc2ccc(Cl)nc2)n(C)c1=O [Compound 143, 7-((6-chloropyridin-3-yl)methyl)-1,3-dimethyl-8-(3-(trifluoromethyl)phenoxy)-1H-purine-2,6(3H,7H)-dione]	2000 to 10000
CCCOCCc1nc2c(c(=O)n(C)c(=O)n2C)n1Cc1cccc(C#N)c1 [Compound 119]	2000 to 10000

Next, values leading:

IC50 [nM]	SMILES
2000 to 10000	CN(C)Cc1cccc(Cn2c(Oc3cccc(OC(F)(F)F)c3)nc3c2c(=O)n(C)c(=O)n3C)c1 [Compound 183]
100 to 500	Cn1c(=O)c2c(nc(SC(C)(C)C(=O)OC(C)(C)C)n2Cc2cccc(Br)c2)n(C)c1=O [Compound 3, Tert-butyl 2-(7-(3-bromobenzyl)-1,3-dimethyl-2,6-dioxo-2,3,6,7-tetrahydro-1H-purin-8-ylthio)-2-methylpropanoate]
500 to 1000	Cn1c(=O)c2c(nc(Oc3ccc(C(F)(F)F)cc3)n2Cc2ccc(Cl)cc2)n(C)c1=O [Compound 144]
2000 to 10000	Cc1c(Oc2nc3c(c(=O)n(C)c(=O)n3C)n2Cc2ccc(Cl)cc2)cccc1C(F)(F)F [Compound 207, 7-(4-chlorobenzyl)-1,3-dimethyl-8-(2-methyl-3-(trifluoromethyl)phenoxy)-1H-purine-2,6(3H,7H)-dione]
2000 to 10000	CN(Cc1ccccc1)c1nc2c(c(=O)n(C)c(=O)n2C)n1Cc1ccc(Cl)c(Cl)c1 [Compound 67]
1000 to 2000	C=C(CC(=O)OCC)c1nc2c(c(=O)n(C)c(=O)n2C)n1Cc1cccc(Br)c1 [Compound 123, ethyl 3-(7-(3-bromobenzyl)-1,3-dimethyl-2,6-dioxo-2,3,6,7-tetrahydro-1H-purin-8-yl)but-3-enoate]
2000 to 10000	Cn1c(=O)c2c(nc(/C=C/c3ccccc3)n2Cc2cccc(Br)c2)n(C)c1=O [Compound 32]
2000 to 10000	CCCC(=O)CCOc1nc2c(c(=O)n(C)c(=O)n2C)n1Cc1cccc(Br)c1 [Compound 120]
500 to 1000	CCOCc1cccc(C(CC)c2nc3c(c(=O)n(C)c(=O)n3C)n2Cc2cccc(Br)c2)c1 (stereo not drawn) [Compound 125, 7-(3-bromobenzyl)-8-(1-(3-(ethoxymethyl)phenyl)propyl)-1,3-dimethyl-1H-purine-2,6(3H,7H)-dione]
2000 to 10000	Cc1ccc(Oc2nc3c(c(=O)n(C)c(=O)n3C)n2Cc2cccc(Cl)c2)cc1 [Compound 76]
